From paper PMC10477891, “Celastrol Combats Methicillin‐Resistant Staphylococcus aureus by Targeting Δ^1‐Pyrroline‐5‐Carboxylate Dehydrogenase” (Advanced Science, 2023)

Assays:
[1] = molecular target: T1, P5CDH (Δ1-pyrroline-5-carboxylate dehydrogenase) (Staphylococcus aureus, UniProt Q2FDV3); test: P5CDH activity kit (FT-M52211); type: biochemical
T1 construct: gene rocA
T1 sequence (Q2FDV3 1-514): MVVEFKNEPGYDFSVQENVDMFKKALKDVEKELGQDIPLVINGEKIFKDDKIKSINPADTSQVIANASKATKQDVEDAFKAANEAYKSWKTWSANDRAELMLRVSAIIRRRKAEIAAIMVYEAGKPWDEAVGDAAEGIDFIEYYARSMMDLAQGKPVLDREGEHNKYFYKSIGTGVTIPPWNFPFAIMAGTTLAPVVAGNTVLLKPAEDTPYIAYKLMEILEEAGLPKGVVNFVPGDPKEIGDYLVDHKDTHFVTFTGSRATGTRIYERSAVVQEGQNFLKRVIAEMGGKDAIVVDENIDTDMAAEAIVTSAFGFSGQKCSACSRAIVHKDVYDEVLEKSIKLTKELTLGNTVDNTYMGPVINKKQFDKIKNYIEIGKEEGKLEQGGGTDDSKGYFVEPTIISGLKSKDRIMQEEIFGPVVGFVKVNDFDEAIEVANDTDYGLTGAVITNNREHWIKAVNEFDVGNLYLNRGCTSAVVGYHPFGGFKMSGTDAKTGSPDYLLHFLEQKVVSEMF

[2] = molecular target: T1, P5CDH (Δ1-pyrroline-5-carboxylate dehydrogenase); test: bio-layer interferometry (Octet NTA, immobilised P5CDH); type: binding

SMILES: CC1=C(O)C(=O)C=C2C1=CC=C1[C@@]2(C)CC[C@@]2(C)[C@@H]3C[C@](C)(C(=O)O)CC[C@]3(C)CC[C@]12C [celastrol]
- IC50 [1]: 10.9 µM
- Kd [2]: 55 µM
